In patent US8822471B2, “Compounds, pharmaceutical compositions and uses thereof” (Boehringer Ingelheim International GmbH, priority 2011, dated 2014) one finds EC50 data, which are given here for 25 compounds.

SMILES strings stand for the structures.

In the test the target is T1, human GPR119 (Homo sapiens, UniProt Q8TDV5).
T1 construct: expression vector for human GPR119 cDNA (Acc. No. NP_848566); expressed in transfected cells
T1 sequence (Q8TDV5 1-335): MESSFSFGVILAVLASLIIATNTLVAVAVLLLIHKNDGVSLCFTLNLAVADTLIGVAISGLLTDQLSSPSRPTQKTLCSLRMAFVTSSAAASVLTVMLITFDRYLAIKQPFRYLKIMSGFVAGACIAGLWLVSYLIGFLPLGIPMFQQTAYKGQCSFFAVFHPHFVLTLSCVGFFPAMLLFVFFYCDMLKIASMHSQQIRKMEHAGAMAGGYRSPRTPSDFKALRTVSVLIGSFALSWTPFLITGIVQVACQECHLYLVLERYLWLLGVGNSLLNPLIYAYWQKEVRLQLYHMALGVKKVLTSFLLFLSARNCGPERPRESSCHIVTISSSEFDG
Nature of the test: AlphaScreen cAMP assay in MIN6 cells stably transfected with human GPR119. The format is cell-based. To be noted: Min-6/hGPR119 cells, AlphaScreen cAMP Assay Kit, 45 minutes incubation at room temperature. How it is done: The compounds of formula I according to the invention modulate the activity of the G-protein-coupled receptor GPR119. The effect of the compounds on the activation of GPR119 and on the stimulation of intracellular cAMP concentration is determined using the AlphaScreen cAMP Assay Kit (Cat. No. #6760625R) made by PerkinElmer.
MIN6 cells [Miyazaki J et al. Endocrinology. 1990 July; 127(1):126-32] are stably transfected with an expression vector for human GPR119 cDNA (Acc. No. NP_848566). Min-6/hGPR119 cells are cultured in DMEM, 10% FBS, 50 μM β-mercaptoethanol, 0.3 mg/mL Geniticin, 2 mM GlutaMAX at 37° C. 5% CO2. For the assay, the cells are seeded in Optiplates (white, 384-well, 160 W-barcoded, TC, sterile with lid, Cat. No. #6007688 (Perkin Elmer); 10000 cells/well; 50 μl). The plates covered with lids are then incubated for 24 hours at 37° C./5% CO2. After the medium is aspirated from the wells completely, 10 μl of the test compound are added, the compounds are diluted using stimulating buffer (140 mM NaCl, 3.6 mM KCl, 0.5 mM NaH2PO4, 0.5 mM MgSO4, 1.5 mM CaCl2, 10 mM Hepes, 5 mM NaHCO3; pH 7.4. 0.5 mM IBMX and 0.1% BSA, the final DMSO concentration is 1%). After 45 minutes incubation at room temperature (approx. 20° C.), the cAMP concentrations are determined using the AlphaScreen cAMP Assay Kit (Cat. No. #6760625R from PerkinElmer).
For orientation: Bead proximity is the source of the signal in Alpha formats.

For `O=C(c1ccc(-c2cnco2)cc1)N(C1CC1)C1CCN(c2ccc(C(F)(F)F)cn2)CC1` [Example 31, N-Cyclopropyl-4-oxazol-5-yl-N-[1-(5-trifluoromethyl-pyridin-2-yl)-piperidin-4-yl]-benzamide], the 50% effective concentration (EC50) – broadly, the concentration giving half of the maximal effect – stood at 0.038 µM.
`O=C(c1ccc(-c2cnco2)cc1)N(C1CC1)C1CCN(c2ccc(Br)cn2)CC1` [Example 32, N-[1-(5-Bromo-pyridin-2-yl)-piperidin-4-yl]-N-cyclopropyl-4-oxazol-5-yl-benzamide] registered an EC50 of 0.038 µM.
Next, `O=C(c1ccc(-c2cnco2)cc1)N(C1CC1)C1CCN(c2ccc(F)cn2)CC1` [Example 33, N-Cyclopropyl-N-[1-(5-fluoro-pyridin-2-yl)-piperidin-4-yl]-4-oxazol-5-yl-benzamide]: 0.276 µM.
Turning to `Cc1ccc(N2CCC(N(C(=O)c3ccc(-c4cnco4)cc3)C3CC3)CC2)nc1` [Example 34, N-Cyclopropyl-N-[1-(5-methyl-pyridin-2-yl)-piperidin-4-yl]-4-oxazol-5-yl-benzamide], the midpoint of the response, the EC50, lay at 0.085 µM.
`O=C(c1ccc(-c2cnco2)cc1)N(C1CC1)C1CCN(c2nc(Cl)ns2)CC1` [Example 35, N-[1-(3-Chloro-[1,2,4]thiadiazol-5-yl)-piperidin-4-yl]-N-cyclopropyl-4-oxazol-5-yl-benzamide] showed an EC50 of 0.053 µM.
To `CC(C)Nc1nsc(N2CCC(N(C(=O)c3ccc(-c4cnco4)cc3)C3CC3)CC2)n1` [Example 36, N-Cyclopropyl-N-[1-(3-isopropylamino-[1,2,4]thiadiazol-5-yl)-piperidin-4-yl]-4-oxazol-5-yl-benzamide] belongs 0.083 µM; to `CC(C)Oc1nsc(N2CCC(N(C(=O)c3ccc(-c4cnco4)cc3)C3CC3)CC2)n1` [Example 37, N-Cyclopropyl-N-[1-(3-isopropoxy-[1,2,4]thiadiazol-5-yl)-piperidin-4-yl]-4-oxazol-5-yl-benzamide], 0.055 µM.
To `CCc1noc(N2CCC(N(C(=O)c3ccc(-c4ccc(C(N)=O)cc4)cc3)C3CC3)CC2)n1` [Example 38, Biphenyl-4,4′-dicarboxylic acid 4-amide 4′-{cyclopropyl-[1-(3-ethyl-[1,2,4]oxadiazol-5-yl)-piperidin-4-yl]-amide}] belongs 0.204 µM; to `NC(=O)c1ccc(-c2ccc(C(=O)N(C3CC3)C3CCN(c4nc(-c5ccccc5)no4)CC3)cc2)cc1` [Example 39, Biphenyl-4,4′-dicarboxylic acid 4′-amide 4-{cyclopropyl-[1-(3-phenyl-[1,2,4]oxadiazol-5-yl)-Piperidin-4-yl]-amide}], 0.087 µM; to `O=C(c1ccc(-c2cnco2)cc1)N(C1CC1)C1CCN(c2nc(-c3ccc(Br)cc3)no2)CC1` [Example 40, N-{1-[3-(4-Bromo-phenyl)-[1,2,4]oxadiazol-5-yl]-piperidin-4-yl}-N-cyclopropyl-4-oxazol-5-yl-benzamide], 0.011 µM.
To `Cc1ncoc1-c1ccc(C(=O)N(C2CC2)C2CCN(c3nc(-c4ccccc4)no3)CC2)cc1` [Example 41, N-Cyclopropyl-4-(4-methyl-oxazol-5-yl)-N-[1-(3-phenyl-[1,2,4]oxadiazol-5-yl)-piperidin-4-yl]-benzamide] belongs 0.038 µM; to `Cc1ncoc1-c1ccc(C(=O)N(C2CC2)C2CCN(c3nc(C(C)C)no3)CC2)cc1` [Example 42, N-Cyclopropyl-N-[1-(3-isopropyl-[1,2,4]oxadiazol-5-yl)-piperidin-4-yl]-4-(4-methyl-oxazol-5-yl)-benzamide], 0.017 µM.
As to `Cc1ncoc1-c1ccc(C(=O)N(C2CC2)C2CCN(c3ncc(Cl)cn3)CC2)cc1` [Example 43, N-[1-(5-Chloro-pyrimidin-2-yl)-piperidin-4-yl]-N-cyclopropyl-4-(4-methyl-oxazol-5-yl)-benzamide], the midpoint of the response, the EC50, lay at 0.046 µM.
To `COc1ccc(-c2noc(N3CCC(N(C(=O)c4ccc(-c5cnco5)cc4)C4CC4)CC3)n2)cc1` [Example 44, N-Cyclopropyl-N-{1-[3-(4-methoxy-phenyl)-[1,2,4]oxadiazol-5-yl]-piperidin-4-yl}-4-oxazol-5-yl-benzamide] belongs 0.031 µM.
To `CCOC(=O)c1noc(N2CCC(N(C(=O)c3ccc(-c4cnco4)cc3)C3CC3)CC2)n1` [Example 45, 5-{4-[Cyclopropyl-(4-oxazol-5-yl-benzoyl)-amino]-piperidin-1-yl}-[1,2,4]oxadiazole-3-carboxylic acid ethyl ester] belongs 0.259 µM; to `CC(C)(O)c1noc(N2CCC(N(C(=O)c3ccc(-c4cnco4)cc3)C3CC3)CC2)n1` [Example 46, N-Cyclopropyl-N-{1-[3-(1-hydroxy-1-methyl-ethyl)-[1,2,4]oxadiazol-5-yl]-piperidin-4-yl}-4-oxazol-5-yl-benzamide], 0.731 µM; to `O=C(c1ccc(-c2cnco2)cc1)N(C1CC1)C1CCN(c2noc(-c3ccccc3)n2)CC1` [Example 47, N-Cyclopropyl-4-oxazol-5-yl-N-[1-(5-phenyl-[1,2,4]oxadiazol-3-yl)-piperidin-4-yl]-benzamide], 0.037 µM.
In turn, `CCc1nc(N2CCC(N(C(=O)c3ccc(-c4cnco4)cc3)C3CC3)CC2)no1` [Example 48, N-Cyclopropyl-N-[1-(5-ethyl-[1,2,4]oxadiazol-3-yl)-piperidin-4-yl]-4-oxazol-5-yl-benzamide] registered an EC50 of 0.047 µM.
In turn, `CC(C)c1nc(N2CCC(N(C(=O)c3ccc(-c4cnco4)cc3)C3CC3)CC2)no1` [Example 49, N-Cyclopropyl-N-[1-(5-isopropyl-[1,2,4]oxadiazol-3-yl)-piperidin-4-yl]-4-oxazol-5-yl-benzamide] registered an EC50 of 0.014 µM.
Turning to `O=C(c1ccc(-c2cnco2)cc1)N(C1CC1)C1CCN(c2noc(-c3cnccn3)n2)CC1` [Example 50, N-Cyclopropyl-4-oxazol-5-yl-N-[1-(5-pyrazin-2-yl-[1,2,4]oxadiazol-3-yl)-piperidin-4-yl]-benzamide], the concentration giving a half-maximal response (EC50) worked out at 0.277 µM.
Compound `O=C(c1ccc(-c2cnco2)cc1)N(C1CC1)C1CCN(c2noc(C3CC3)n2)CC1` [Example 51, N-Cyclopropyl-N-[1-(5-cyclopropyl-[1,2,4]oxadiazol-3-yl)-piperidin-4-yl]-4-oxazol-5-yl-benzamide] gave a concentration for a half-maximal effect (EC50) of 0.056 µM.
In turn, `O=C(c1ccc(-c2cnco2)cc1)N(C1CC1)C1CCN(c2noc(C3CCC3)n2)CC1` [Example 52, N-[1-(5-Cyclobutyl-[1,2,4]oxadiazol-3-yl)-piperidin-4-yl]-N-cyclopropyl-4-oxazol-5-yl-benzamide] showed an EC50 of 0.017 µM.
Compound `CCc1cnc(N2CCC(N(C(=O)c3ccc(-c4cnco4)cc3)C3CC3)C(C)C2)nc1` (stereo not shown) [Example 53, N-Cyclopropyl-N-[1-(5-ethyl-pyrimidin-2-yl)-3-methyl-piperidin-4-yl]-4-oxazol-5-yl-benzamide] had a concentration giving a half-maximal response (EC50) of 0.099 µM. This EC50 is about 5.8-fold higher than that of the compound before.
The compound `CC1CN(c2nc(-c3ccccc3)no2)CCC1N(C(=O)c1ccc(-c2cnco2)cc1)C1CC1` (stereo not shown) [Example 54, N-Cyclopropyl-N-[3-methyl-1-(3-phenyl-[1,2,4]oxadiazol-5-yl)-piperidin-4-yl]-4-oxazol-5-yl-benzamide] gave an EC50 of 0.043 µM. This EC50 is about 2.3-fold lower than that of the compound before.
As to `O=C(c1ccc(-c2cnco2)cc1)N(C1CC1)C1CCN(c2nc(CC3CCOCC3)no2)CC1` [Example 55, N-Cyclopropyl-4-oxazol-5-yl-N-{1-[3-(tetrahydro-pyran-4-ylmethyl)-[1,2,4]oxadiazol-5-yl]-piperidin-4-yl}-benzamide], the EC50 worked out at 1.15 µM.
